# Laboratory results reported in US4136192A, “4-Hydroxy-3-nitro (cyano) coumarins” (Beecham Group Limited, priority 1975, dated 1979).
# Test system: slow reacting substance of anaphylaxis (SRS-A)
# Assay: SRS-A antagonism on isolated guinea pig ileum
# Parameters: species or system guinea pig ileum (SRS-A from rat)
# Details: isolated guinea pig ileum strips, rat SRS-A, tyrode with atropine and mepyramine; 50% inhibition per method; read-out: SRS-A antagonism on Guinea Pig Ileum: Approximate concentration to give inhibition of a than maximal response to SRS-A
# Text: The compounds have been evaluated as direct antagonists of slow reacting substance of anaphylaxis (SRS-A) by assay using the isolated guinea pig ileum.
# SRS-A rat was obtained from the peritoneal cavity of the rat after passive peritoneal anaphylaxis by a method based on that of R. P. Orange, D. J. Stechschulte and K. F. Austen, J. Immunology, 105 1087 (1970) as described by B. A. Spicer, J. W. Ross and H. Smith, Clin. exp. Immunol. 1975, 21, 419. The sensitizing serum containing reaginic antibody was produced in rats as described by B. A. Spicer, et. al. ibid.
# 2 ml of a 1 in 5 dilution of the sensitizing serum was injected by the peritoneal route into recipient rats and after 2 hours, 5 ml of tyrode solution containing 0.4 mg/ml ovalbumin (Sigma Grade III) and 50 μg/ml heparin was injected by the same route. Five minutes after challenge the rats were stunned and bled and the peritoneal fluids collected into polycarbonate tubes in ice. After centrifugation at 150 g for 5 minutes the supernatants were combined, heated in a boiling water bath for 5 minutes, cooled and stored at -20° C. The combined peritioneal fluids contained SRS-A and were used in the antagonism studies.
# The SRS-A assays were carried out on isolated strips of guinea pig ileum in tyrode solution containing atropine 5 × 10^-7 M and mepyramine 10^-6 M as described by W. E. Brocklehurst, J. Physiology, 151, 416 (1960).
# The activity of the antagonists was determined by their ability to reduce submaximal responses induced by SRS-A. The antagonists were added to a 4 ml bath in 0.1 ml volumes in aqueous solution half a minute before the addition of SRS-A and were present during induced contraction. Two or three concentrations of antagonists were used and the percentage inhibition of the SRS-A response plotted against the bath concentration of antagonist. The line of best fit was drawn and the concentration to cause 50% inhibition IC50 read graphically.
row,Compound,IC50
1,"CC(=O)c1ccc(OCCCOc2ccc3c(O)c([N+](=O)[O-])c(=O)oc3c2)cc1O [Example 138, 7-(3-[4-Acetyl-3-hydroxyphenoxy]propoxy)-4-hydroxy-3-nitrocoumarin]",1000 nM
2,"O=c1oc2cc(OCCCCCOc3ccccc3)ccc2c(O)c1[N+](=O)[O-] [Example 152, 4-Hydroxy-3-nitro-7-(5-phenoxypentoxy)-coumarin]",1000 nM
3,"CCCc1c(OCC(O)COc2ccc3c(O)c([N+](=O)[O-])c(=O)oc3c2)ccc(C(C)=O)c1O (centres unmarked) [Example 114, 7-(3-[4-Acetyl-3-hydroxy-2-n-propylphenoxy]-2-hydroxypropoxy)-4-hydroxy-3-nitrocoumarin]",10 nM
4,"O=c1oc2cc(OCCCCOc3ccccc3)ccc2c(O)c1[N+](=O)[O-] [Example 150, 4-Hydroxy-3-nitro-7-(4-phenoxybutoxy)-coumarin]",1000 nM
5,"O=C(O)c1ccc(OCC(O)COc2ccc3c(O)c([N+](=O)[O-])c(=O)oc3c2)cc1 (centres unmarked) [Example 140, 7-(3-[4-Carboxyphenoxy]-2-hydroxy-propoxy)-4-hydroxy-3-nitrocoumarin]",10000 nM
6,"O=c1oc2cc(OCCCOc3ccc4c(c3)CCCC4)ccc2c(O)c1[N+](=O)[O-] [Example 162, 4-Hydroxy-3-nitro-7-(3-[5,6,7,8-tetrahydro-2-naphthyloxy]propoxy) coumarin]",10000 nM
7,"CC(=O)c1ccc(OCC(O)COc2ccc3c(O)c([N+](=O)[O-])c(=O)oc3c2)c(C)c1O (centres unmarked) [Example 144, 7-(3-[4-Acetyl-3-hydroxy-2-methyl-phenoxy]-2-hydroxy-propoxy)-4-hydroxy-3-nitrocoumarin]",100 nM
8,"Cc1ccc(OCCCOc2ccc3c(O)c([N+](=O)[O-])c(=O)oc3c2)c([N+](=O)[O-])c1 [Example 137, 4-Hydroxy-7-(3-[4-methyl-2-nitrophenoxy]propoxy)-3-nitrocoumarin]",10000 nM
9,"O=c1oc2cc(OCCCCc3ccc(Cl)cc3)ccc2c(O)c1[N+](=O)[O-] [Example 122, 7-(4-[4-Chlorophenyl]butoxy)-4-hydroxy-3-nitrocoumarin]",1000 nM
10,"CC(=O)c1ccc(OCC(O)COc2ccc3c(O)c([N+](=O)[O-])c(=O)oc3c2)cc1O (centres unmarked) [Example 143, 7-(3-[4-Acetyl-3-hydroxyphenoxy]2-hydroxypropoxy)-4-hydroxy-3-nitrocoumarin]",10000 nM
11,"CCCc1c(OCCCOc2ccccc2)ccc2c(O)c([N+](=O)[O-])c(=O)oc12 [Example 131, 4-Hydroxy-3-nitro-7-(3-phenoxy-propoxy) 8-n-propylcoumarin]",1000 nM
12,"O=c1oc2ccc(OCCCCCOc3ccccc3)cc2c(O)c1[N+](=O)[O-] [Example 151, 4-Hydroxy-3-nitro-6-(5-phenoxypentoxy)-coumarin]",1000 nM
13,"O=c1oc2cc(OCCCCc3ccccc3)ccc2c(O)c1[N+](=O)[O-] [Example 121, 4-Hydroxy-3-nitro-7-(4-phenylbutoxy) coumarin]",1000 nM
14,"Cc1cc(OCCCOc2ccccc2)cc2oc(=O)c([N+](=O)[O-])c(O)c12 [Example 130, 4-Hydroxy-5-methyl-3-nitro-7-(3-phenoxypropoxy)]",1000 nM
15,"CCCc1c(OCCCOc2ccc3c(O)c([N+](=O)[O-])c(=O)oc3c2)ccc(C(C)=O)c1O [Example 139, 7-(3-[4-Acetyl-3-hydroxy-2-n-propylphenoxy]propoxy)-4-hydroxy-3-nitrocoumarin]",100 nM
16,"Cc1ccc(CCCCOc2ccc3c(O)c([N+](=O)[O-])c(=O)oc3c2)cc1 [Example 123, 4-Hydroxy-7-(4-[4-methylphenyl]butoxy)-3-nitrocoumarin]",1000 nM

# Continued, values first:
row,IC50,Compound
1,10000 nM,"O=c1oc2cc(OCCCOc3ccc(-c4ccccc4)cc3)ccc2c(O)c1[N+](=O)[O-] [Example 161, 4-Hydroxy-7-(3-[4-phenylphenoxy]propoxy)-3-nitro-coumarin]"
2,1000 nM,"O=c1oc2cc(OCCCOc3ccc(Cl)cc3)ccc2c(O)c1[N+](=O)[O-] [Example 133, 7-(3-[4-Chlorophenoxy]propxy-4-hydroxy-3-nitrocoumarin]"
3,1000 nM,"O=c1oc2ccc(OCCCc3ccccc3)cc2c(O)c1[N+](=O)[O-] [Example 118, 4-Hydroxy-3-nitro-6-(3-phenylpropoxy) coumarin]"
4,10000 nM,"N#Cc1ccc(OCCCOc2ccc3c(O)c([N+](=O)[O-])c(=O)oc3c2)cc1 [Example 160, 7-(3[4-Cyanophenoxy]-propoxy)-4-hydroxy-3-nitrocoumarin]"
5,10000 nM,"O=c1oc2cc(OCC(O)COc3ccccc3)ccc2c(O)c1[N+](=O)[O-] (centres unmarked) [Example 141, 4-Hydroxy-7-(2-hydroxy-3-phenoxypropoxy)-3-nitrocoumarin]"
6,1000 nM,"O=c1oc2ccc(OCCCOc3ccccc3)cc2c(O)c1[N+](=O)[O-] [Example 128, 4-Hydroxy-3-nitro-6-(3-phenoxypropoxy) coumarin]"
7,1000 nM,"CC(=O)c1ccc(OCCCOc2ccc3c(O)c([N+](=O)[O-])c(=O)oc3c2)cc1 [Example 136, 7-(3-[4-Acetylphenoxy]propoxy)-4-hydroxy-3-nitrocoumarin]"
8,1000 nM,"COc1ccc(OCCCOc2ccc3c(O)c([N+](=O)[O-])c(=O)oc3c2)cc1 [Example 158, 4-Hydroxy-7-(3-[4-methoxyphenoxy]propoxy)-3-nitrocoumarin]"
9,100 nM,"CCCc1ccccc1OCC(O)COc1ccc2c(O)c([N+](=O)[O-])c(=O)oc2c1 (centres unmarked) [Example 163, 4-Hydroxy-7-(2-hydroxy3-[2-n-propylphenoxy]propoxy)-3-nitro-coumarin]"
10,1000 nM,"O=c1oc2cc(OCCCOc3ccccc3)ccc2c(O)c1[N+](=O)[O-] [Example 129, 4-Hydroxy-3-nitro-7-(3-phenoxypropoxy) coumarin]"
11,1000 nM,"Cc1cccc(OCCCOc2ccc3c(O)c([N+](=O)[O-])c(=O)oc3c2)c1 [Example 156, 4-Hydroxy-7-(3-[3-methylphenoxy]propoxy)-3-nitrocoumarin]"
12,10000 nM,"CCc1cc2c(O)c([N+](=O)[O-])c(=O)oc2cc1OCCCOc1ccccc1 [Example 132, 6-Ethyl-4-hydroxy-3-nitro-7-(3-phenoxy-propoxy) coumarin]"
13,100 nM,"O=c1oc2ccc(OCCCCCCOc3ccccc3)cc2c(O)c1[N+](=O)[O-] [Example 153, 4-hydroxy-3-nitro-6-(6-phenoxyhexoxy) coumarin]"
14,10000 nM,"O=c1oc2cc(OCCOc3ccccc3)ccc2c(O)c1[N+](=O)[O-] [Example 126, 4-Hydroxy-3-nitro-7-(2-phenoxyethoxy) coumarin]"
15,1000 nM,"CC(=O)c1ccc(CCCOc2ccc3c(O)c([N+](=O)[O-])c(=O)oc3c2)cc1 [Example 120, 7-(3-[4-Acetylphenyl]propoxy)-4-hydroxy-3-nitrocoumarin]"
16,1000 nM,"O=c1oc2cc(OCCCc3ccccc3)ccc2c(O)c1[N+](=O)[O-] [Example 119, 4-Hydroxy-3-nitro-7-(3-phenylpropoxy) coumarin]"
17,10000 nM,"O=c1oc2ccc(OCCc3ccccc3)cc2c(O)c1[N+](=O)[O-] [Example 115, 4-Hydroxy-3-nitro-6-(2-phenylethoxy) coumarin]"
18,10000 nM,"O=c1oc2ccc(OCCOc3ccccc3)cc2c(O)c1[N+](=O)[O-] [Example 125, 4-Hydroxy-3-nitro-6-(2-phenoxyethoxy) coumarin]"
19,10000 nM,"O=C(O)c1ccc(OCCCOc2ccc3c(O)c([N+](=O)[O-])c(=O)oc3c2)cc1 [Example 134, 7-(3-[4-Carboxyphenoxy]propoxy)-4-hydroxy-3-nitrocoumarin]"
20,1000 nM,"O=c1oc2cc(OCCc3ccccc3)ccc2c(O)c1[N+](=O)[O-] [Example 116, 4-Hydroxy-3-nitro-7-(2-phenylethoxy) coumrin]"
21,100 nM,"O=c1oc2cc(OCCCOc3ccc(F)cc3)ccc2c(O)c1[N+](=O)[O-] [Example 159, 7-(3-[4-Fluorophenoxy]propoxy)-4-hydroxy-3-nitrocoumarin]"
22,1000 nM,"Cc1ccc(OCCCOc2ccc3c(O)c([N+](=O)[O-])c(=O)oc3c2)cc1 [Example 157, 4-Hydroxy-7-(3-[4-methylphenoxy]propoxy)-3-nitrocoumarin]"
23,10000 nM,"COC(=O)c1ccc(OCCCOc2ccc3c(O)c([N+](=O)[O-])c(=O)oc3c2)cc1 [Example 135, 7-(3-[4-Carbomethoxyphenoxy]propoxy)-4-hydroxy-3-nitrocoumarin]"

# Same assay, conditions: second results table, unit inferred; isolated guinea pig ileum, rat SRS-A; read-out: SRS-A antagonism on Guinea Pig ileum: Approximate concentration to give 50% inhibition of a less than maximal response to SRS-A
row,IC50,Compound
1,1000 nM,"Cc1cc2c(cc1OCCCOc1ccccc1)C(=O)C([N+](=O)[O-])C2=O (centres unmarked) [Example 185, 5-Methyl-2-nitro-6-(3-phenoxypropoxy)indan-1,3-dione]"
2,1000 nM,"N#CC1C(=O)c2ccc(OCCc3ccccc3)cc2C1=O (centres unmarked) [Example 189, 2-Cyano-5-(2-phenylethoxy)indan-1,3-dione]"
